{
  "source": "patent US12674178B2",
  "about": "“Methods for the evaluation of neutralizing antibodies for adeno-associated virus” (REGENTS OF THE UNIVERSITY OF MINNESOTA, priority 2020, dated 2026)",
  "key": {"AAV8": {"tested_on": "AAV8", "assay": "AAV8-Luc infection of HEK293 cells, luciferase readout", "type": "cell-based, adeno-associated virus", "settings": "at least one model system, cells pretreated", "experimental": "(§1) HEK293 cells were infected with AAV8-Luciferase (Luc) or AAV2-Luc at an MOI of 5000 in the presence of several pharmacologically active drugs (TNFα+LPS, TNFα+IL-6, dorsomorphin (also known as “Compound C” or “CC”), SP600125, or rosiglitazone). The drugs were added 1 hour before injection with AAV-Luc. 24 hours after AAV-Luc was added, luciferase was detected, as further described in Example 2.\nMethod: Day 0: • 1. Remove culture medium (DMEM supplemented with 10% heat-inactivated FBS and 1% penicillin/streptomycin) from HEK293 cell culture, gently wash cells twice with 100 μL of PBS. Cells should be at low passage and approximately 80% confluent without being overgrown. Harvest cells by trypsinization and perform a cell count. • 2. Resuspend cells in complete DMEM culture medium at 200,000 cells/mL. Seed cells in 96-well plates with black or white walls and clear bottoms: 20,000 cells/well in 100 μL of complete media. • 3. Incubate cells overnight in C02 incubator at 37° C. Day 1: • 1. […] Each dilution was analyzed at least in triplicate. […] Set up spectrophotometer to read chemiluminescence. If the spectrophotometer is BioTek the read conditions are: 500 ms, gain 125-135, height of plate 3.75 mm. Add 50 μL of Bright Glo substrate to each well, incubate plate 3 min in the dark and then read. For maximal light intensity, samples should be measured within 15 minutes of reagent addition. […]"}, "AAV2": {"tested_on": "AAV2", "assay": "AAV2-Luc infection of HEK293 cells, luciferase readout", "type": "cell-based, adeno-associated virus", "settings": "AAV2, CC pre-treatment, 48 hours, MOI 2000", "experimental": "as §1\nMethod: Day 0: • 1. Remove culture medium (DMEM supplemented with 10% heat-inactivated FBS and 1% penicillin/streptomycin) from HEK293 cell culture, gently wash cells twice with 100 μL of PBS. Cells should be at low passage and approximately 80% confluent without being overgrown. Harvest cells by trypsinization and perform a cell count. • 2. […] Each dilution was analyzed at least in triplicate. […] Set up spectrophotometer to read chemiluminescence. If the spectrophotometer is BioTek the read conditions are: 500 ms, gain 125-135, height of plate 3.75 mm. Add 50 μL of Bright Glo substrate to each well, incubate plate 3 min in the dark and then read. For maximal light intensity, samples should be measured within 15 minutes of reagent addition.\n(§2) The dramatic improvement of AAV8 transduction in vitro in the presence of CC prompted test to determine if similar effect could be achieved for other AAV serotypes. The transduction efficiency of ten common AAV serotypes at MOI 2000 vg/cell was analyzed. […]"}, "AAV10": {"tested_on": "AAV10", "assay": "AAV10/Luc infection of HEK293 cells, luciferase readout", "type": "cell-based, adeno-associated virus", "settings": "AAV10, CC pre-treatment, MOI 2000", "experimental": "Method: Day 0: • 1. Remove culture medium (DMEM supplemented with 10% heat-inactivated FBS and 1% penicillin/streptomycin) from HEK293 cell culture, gently wash cells twice with 100 μL of PBS. Cells should be at low passage and approximately 80% confluent without being overgrown. Harvest cells by trypsinization and perform a cell count. • 2. Resuspend cells in complete DMEM culture medium at 200,000 cells/mL. Seed cells in 96-well plates with black or white walls and clear bottoms: 20,000 cells/well in 100 μL of complete media. • 3. Incubate cells overnight in C02 incubator at 37° C. Day 1: • 1. Confirm microscopically that cells are 50-80% confluent. • 2. […] Each dilution was analyzed at least in triplicate. […] Set up spectrophotometer to read chemiluminescence. If the spectrophotometer is BioTek the read conditions are: 500 ms, gain 125-135, height of plate 3.75 mm. Add 50 μL of Bright Glo substrate to each well, incubate plate 3 min in the dark and then read. For maximal light intensity, samples should be measured within 15 minutes of reagent addition.\nas §2"}, "HEK293 cells": {"tested_on": "HEK293 cells", "assay": "Cytotoxicity of the drug to the cells to be infected", "type": "cell-based"}},
  "data": [
    {"smiles": "c1cc(-c2cnn3cc(-c4ccc(OCCN5CCCCC5)cc4)cnc23)ccn1", "note": "[dorsomorphin]", "values": [
      {"measurement": "CC pretreatment concentration giving statistically significant increase in activity of AAV/Luc", "setting": "AAV8", "result": "at least 2.5 μM"},
      {"measurement": "luciferase activity, times higher than background", "setting": "AAV2", "result": "more than 1000 times"},
      {"measurement": "luciferase activity, times higher than background", "setting": "AAV10", "result": 8, "unit": "times"},
      {"measurement": "cytotoxic effects", "setting": "HEK293 cells; HEK293 infected with AAV2/AAV8", "result": "without cytotoxic effects"},
      {"measurement": "CC concentration that became toxic to cells", "setting": "HEK293 cells; at least one model system", "result": "higher than 20 μM"}
    ]}
  ]
}
